Test results from EP4810040A2, “INHIBITORS OF APOL1 AND METHODS OF USING SAME” (priority 2020, dated 2022).
Like-named read-outs stand apart in the source and are kept apart here.

Biological target: T1, APOL1 G1 (Homo sapiens, UniProt O14791, I384M/S342G)
T1 sequence (O14791 28-398 S342G/I384M): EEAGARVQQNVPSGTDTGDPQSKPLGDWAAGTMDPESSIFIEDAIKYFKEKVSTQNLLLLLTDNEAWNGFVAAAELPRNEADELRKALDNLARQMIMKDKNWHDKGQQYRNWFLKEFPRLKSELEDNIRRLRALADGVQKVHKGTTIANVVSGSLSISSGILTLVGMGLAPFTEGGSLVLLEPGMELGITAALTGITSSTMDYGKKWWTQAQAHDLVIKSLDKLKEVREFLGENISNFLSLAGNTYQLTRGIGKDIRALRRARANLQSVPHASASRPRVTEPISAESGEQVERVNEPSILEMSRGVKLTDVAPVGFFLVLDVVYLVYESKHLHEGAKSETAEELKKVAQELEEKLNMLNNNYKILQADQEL
Assay: MultiTox-Fluor Multiplex Cytotoxicity Assay, tet-inducible APOL1 G1 T-REx-HEK293 cells
Type: cell-based
Set-up: expressed in transfected cells; host or cells: T-REx HEK293, clone G1 DC3.25 (pAAVS1-Puro-APOL1 G1)
Conditions: for IC90: read-out: Multi-Tox Assay IC90; for Multi-Tox Assay Max Activity (%) / Emax: APOL1 variant not given; for Emax: read-out: Multi-Tox Assay Max Activity (%)
Summary of the method: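 Over 24 h at 37 °C, compounds (10-point 3-fold series from 10 µM, duplicate) were co-incubated with 50 ng/mL tetracycline inducing APOL1 G1 in T-REx-HEK293 cells. Viability/cytotoxicity measured by MultiTox-Fluor as dead-to-live fluorescence ratio, expressed as percent of control between uninduced and induced wells and fitted.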

[1] = HEK293, Multi-Tox Assay, APOL1 variant (G0/G1/G2) of the HEK293 cells not given

Row | Structure (SMILES) | IC90 [1] [nM] | Multi-Tox Assay Max Activity (%) (Multi-Tox Assay) | Emax (Multi-Tox Assay) [%] | IC90 (Multi-Tox Assay, APOL1 variant (G0/G1/G2) not stated in Table 46) [nM]
1 | Cc1ccc([C@@H]2C[C@]3(C[C@H](C)N2)OCCc2cc(Cl)sc23)nn1 (racemic) [Compound 58] | < 50 | 99.7 | – | –
2 | C[C@H]1C[C@@]2(C[C@@H](c3ccc(C(F)(F)F)nc3)N1)OCCc1cc(Cl)sc12 (racemic) [Compound 123] | 50 to 500 | 100.0 | – | –
3 | C[C@H]1C[C@@]2(C[C@@H](c3cnccn3)N1)OCCc1cc(Cl)sc12 (racemic) [Compound 101] | < 50 | 100.0 | – | –
4 | Cc1nnc(Cn2cc([C@@H]3C[C@]4(C[C@H](C)N3)OCC(F)(F)c3cc(Cl)sc34)nn2)[nH]1 [Compound 339] | 50 to 500 | 97.0 | – | –
5 | CC(C)C(=O)NCCn1cc([C@@H]2C[C@]3(C[C@H](C)N2)OCC(F)(F)c2cc(Cl)sc23)nn1 [Compound 345] | 50 to 500 | – | – | –
6 | C[C@H]1C[C@@]2(C[C@@H](c3cccc(=O)[nH]3)N1)OCCc1cc(Cl)sc12 (racemic) [Compound 151] | > 500 | 96.2 | – | –
7 | C[C@H]1C[C@@]2(C[C@@H](c3cc(C(F)(F)F)[nH]n3)N1)OCCc1cc(Cl)sc12 [Compound 119] | 50 to 500 | 99.7 | – | –
8 | Cc1nccn1CCCn1cc([C@@H]2C[C@]3(C[C@H](C)N2)OCC(F)(F)c2cc(Cl)sc23)nn1 [Compound 341] | > 500 | 98.0 | – | –
9 | COc1ccc(Cn2cc([C@@H]3C[C@]4(C[C@H](C)N3)OCC(F)(F)c3cc(Cl)sc34)nn2)cn1 [Compound 360] | 50 to 500 | – | – | –
10 | C[C@H]1C[C@@]2(C[C@@H](c3cn(CCOc4ccccc4F)nn3)N1)OC[C@@H](O)c1cc(Cl)sc12 [Compound 301] | < 50 | – | – | –
11 | COc1nn(C)cc1[C@@H]1C[C@]2(C[C@H](C)N1)OCCc1cc(Cl)sc12 (racemic) [Compound 154] | > 500 | 94.0 | – | –
12 | C[C@H]1C[C@@]2(C[C@@H](c3cnn(CC(=O)N(C)C)c3)N1)OCCc1cc(Cl)sc12 [Compound 18, 2-[4-[(2S, 6S)-2-chloro-6'-methyl-spiro[4,5-dihydrothieno[2,3-c]pyran-7,4'-piperidine]-2'-yl]pyrazol-1-yl]-N,N-dimethyl-acetamide] | < 50 | – | 99.5 | –
13 | Cc1ncc(Cn2cc([C@@H]3C[C@]4(C[C@H](C)N3)OC[C@@H](O)c3cc(Cl)sc34)nn2)cn1 [Compound 277] | 50 to 500 | 100.0 | – | –
14 | CCc1nc([C@@H]2C[C@]3(C[C@H](C)N2)OCCc2cc(Cl)sc23)c[nH]1 (racemic) [Compound 128] | 50 to 500 | 99.3 | – | –
15 | C[C@H]1CC2(C[C@@H](c3cn(C)nn3)N1)OCC(C)(C)c1sc(C(F)(F)F)cc12 (single isomer, unassigned) [Compound 16] | 50 to 500 | 100.0 | – | –
16 | C[C@H]1C[C@@]2(C[C@@H](c3cn(CC4(F)CCOCC4)nn3)N1)OC[C@@H](O)c1cc(Cl)sc12 [Compound 289] | > 500 | 83.0 | – | –
17 | Cc1cc([C@@H]2C[C@]3(C[C@H](C)N2)OCCc2cc(Cl)sc23)ccc1O (racemic) [Compound 108] | 50 to 500 | – | – | –
18 | C[C@H]1C[C@@]2(C[C@@H](c3ncnn3C)N1)OCCc1cc(Cl)sc12 (racemic) [Compound 171] | > 500 | 71.8 | – | –
19 | CC1CC2(CC(c3cnn(CCS(C)(=O)=O)c3)N1)OCCc1sc(C(F)(F)F)cc12 (centres unmarked) [Compound 9] | 50 to 500 | 100.0 | – | –
20 | C[C@H]1C[C@@]2(C[C@@H](C3(CO)CC3)N1)OCCc1cc(Cl)sc12 [Compound 380, [1-[(2'S,6'S,7S)-2-chloro-6'-methyl-spiro[4,5-dihydrothieno[2,3-c]pyran-7,4'-piperidine]-2'-yl]cyclopropyl]methanol] | – | – | – | 50 to 500

Row | Structure (SMILES) | IC90 [1] [nM] | Multi-Tox Assay Max Activity (%) (Multi-Tox Assay) | Emax (Multi-Tox Assay) [%] | IC90 (Multi-Tox Assay, APOL1 variant (G0/G1/G2) not stated in Table 46) [nM]
21 | C[C@H]1C[C@@]2(C[C@@H](c3cc(C4CCOCC4)[nH]n3)N1)OCCc1cc(Cl)sc12 [Compound 114] | 50 to 500 | 99.7 | – | –
22 | COc1ccnc([C@@H]2C[C@]3(C[C@H](C)N2)OCCc2cc(Cl)sc23)n1 (racemic) [Compound 145] | > 500 | 97.7 | – | –
23 | CC(C)c1cc2c(s1)C1(C[C@@H](C)N[C@@H](C)C1)OCC2 (single isomer, unassigned) [Compound 200] | > 500 | – | 97 | –
24 | CC1CC2(CC(c3cnn(C)n3)N1)OCCc1cc(Cl)sc12 (centres unmarked) [Compound 38] | < 50 | – | 100 | –
25 | C[C@H]1C[C@@]2(C[C@@H](c3ccnn3C)N1)OCCc1cc(Cl)sc12 (racemic) [Compound 152] | > 500 | 98.0 | – | –
26 | CC(C)C1CC2(CC(c3cn(C)nn3)N1)OCCc1cc(C(F)(F)F)sc12 (centres unmarked) [Compound 191] | 50 to 500 | – | 99.7 | –
27 | C[C@H]1C[C@@]2(C[C@@H](c3cn(Cc4cccnn4)nn3)N1)OCC(F)(F)c1cc(Cl)sc12 [Compound 321] | 50 to 500 | – | – | –
28 | C[C@H]1C[C@@]2(C[C@@H](c3ccc(C(=O)NC4CC4)cc3)N1)OCCc1cc(Cl)sc12 (racemic) [Compound 71] | < 50 | – | 100 | –
29 | C[C@H]1C[C@@]2(C[C@@H](c3cnc(-c4ccccc4)o3)N1)OCCc1cc(Cl)sc12 (racemic) [Compound 70] | < 50 | – | 99.3 | –
30 | Cc1ccccc1C(O)Cn1cc([C@@H]2C[C@]3(C[C@H](C)N2)OC[C@@H](O)c2cc(Cl)sc23)nn1 (some centres unmarked) [Compound 261] | 50 to 500 | 100.0 | – | –
31 | C[C@H]1C[C@@]2(C[C@@H](c3cn(C)nn3)N1)OC[C@H](O)c1cc(Cl)sc12 [Compound 177, (2'S,4R,6'S,7S)-2-chloro-2'-methyl-6'-(1-methyltriazol-4-yl)spiro[4,5-dihydrothieno[2,3-c]pyran-7,4'-piperidine]-4-ol] | < 50 | – | 100 | –
32 | C[C@H]1C[C@@]2(C[C@@H](c3cn(CC4(CO)CC4)nn3)N1)OCC(F)(F)c1cc(Cl)sc12 [Compound 357] | 50 to 500 | – | – | –
33 | C[C@H]1C[C@@]2(C[C@@H](c3cn(Cc4ccc(O)nc4)nn3)N1)OC[C@@H](O)c1cc(Cl)sc12 [Compound 275] | > 500 | 94.0 | – | –
34 | Cc1ccc([C@@H]2C[C@]3(C[C@H](C)N2)OCCc2cc(Cl)sc23)nc1 (racemic) [Compound 77] | < 50 | – | 99 | –
35 | Cc1ccnc([C@@H]2C[C@]3(C[C@H](C)N2)OCCc2cc(Cl)sc23)c1 (racemic) [Compound 139] | 50 to 500 | 98.0 | – | –
36 | COc1ccc(C(O)Cn2cc([C@@H]3C[C@]4(C[C@H](C)N3)OCC(F)(F)c3cc(Cl)sc34)nn2)cc1 (some centres unmarked) [Compound 348] | > 500 | 97.0 | – | –
37 | C[C@H]1C[C@@]2(C[C@@H](c3c[nH]nn3)N1)OCCc1cc(Cl)sc12 (racemic) [Compound 72] | < 50 | – | 99.7 | –
38 | CC1CC2(CC(C3CC3)N1)OCCc1cc(Cl)sc12 (mixture of isomers) [Compound 217] | < 50 | – | 99.2 | –
39 | C[C@H]1C[C@@]2(C[C@@H](c3ccnc(N(C)C)n3)N1)OCCc1cc(Cl)sc12 (racemic) [Compound 127] | 50 to 500 | 99.3 | – | –
